Measurements: patent publication US12226405B2, “Compounds and compositions for inhibiting the activity of HIF2-alpha and their methods of use” (Novartis AG, priority 2020, dated 2025)

Assays:
[1] = system: HIF2α-regulated expression of the endogenous target gene hEGLN3 in 786-O cells; test: Cellular iScript assay for HIF2α (quantitative RT-PCR of hEGLN3); format: cell-based, human; details: Homo sapiens, 786-0, 48 hours incubation
Description: (§1) Stock solutions of compounds were prepared at a concentration of 10 mM in DMSO and stored at 4° C. Where necessary to afford a full dose-response curve, the stock solutions were pre-diluted in DMSO to 1,000-fold the desired reduced start concentration. On the day after cell seeding, eleven 2-fold serial dilutions of each compound were dispensed directly into the cell assay plates using either HP 300D non-contact Digital Dispenser (TECAN) or a ATS100 acoustic dispenser (EDC Biosystems).
Compound-mediated modulation of the HIF2α-regulated expression of the endogenous target gene hEGLN3 (OMIM: 606426), as well as beta-actin (OMIM: 102630) as a house-keeping control, was assess in 786-O cells (RRID CVCL_1051) using a quantitative RT-PCR approach. In short, 786-O cells were maintained in growth medium composed of DMEM (GIBCO #11995-065), 2 mM L-Glutamine (BioConcept #5-10K50-H), 1× Penicillin/Streptomycin (BioConcept #4-01F00-H), 10% fetal calf serum (Gibco #A31608-01), 1 mM Sodium pyruvate (BioConcept #5-60F00-H). Cells were seeded at 1,000 cells/20 μL/well into white-wall, clear-bottom 384-well plates (Greiner #781098) and incubated over night at 37° C. prior to addition of serial compound dilutions as described above. Following incubation for 48 hours at 37° C., medium supernatant was discarded and the plate blotted dry by inverting on a tissue. The same procedure was repeated following one wash with 20 μL phosphate-buffered saline. Following addition of 25 μL/well iScript sample preparation reagent (BioRad #170-8899) using a 16-channel Matrix pipette, the plate was incubated for 2 min at room temperature. 20 μL lysate supernatant was then removed and transferred to a new 384 well plate (Costar #3656) and diluted 1:3 by adding 5 μL of the lysate to 10 μL H2O using a Bravo liquid handler (Agilent). 2 μL of the diluted lysate was added to the 8 μL of a mastermix containing 5 μL iTaq Universal Probes One-step kit (BioRad #172-5141), 0.25 μL iScript reverse transcription supermix (BioRad #1708840), 0.25 μL 40×HEX-ZEN-labeled TaqMan probe for beta-actin (IDT #Hs.PT.39a.22214847: Probe 5′ HEX-TCA TCC ATG/ZEN/GTG AGC TGG CGG-3′ (SEQ ID NO: 2) Iowa Black FQ, Primer 1: ACA GAG CCT CGC CTT TG (SEQ ID NO: 3); Primer 2: CCT TGC ACA TGC CGG (SEQ ID NO: 4) AG), 0.25 μL, 40×FAM-ZEN-labeled TaqMan probe for hEGLN3 (IDT #Hs.PT.58.189348: Probe 5′ 6-FAM-TTT GGC TTC/ZEN/TGC CCT TTC TTC AGC-3′ (SEQ ID NO: 5) Iowa Black FQ, Primer 1: CACGGTCAGTCTTCAGTGAG (SEQ ID NO: 6); Primer 2: CGCAACCAGATATGCTATGACT (SEQ ID NO: 7)), 2.25 μL RNase-free water, prelaid in a 384 well plate (ABI #4309849) using a 16-channel Matrix pipette. The plate was sealed with a PCR-compatible optical film (MicroAmp, ABI #4360954) and centrifuged (1500 rpm, 5 min, +4° C.) to collect all reagents in the bottom of the well and to remove bubbles. The plate content was amplified on a 7900HT thermal cycler (ABI) using the following conditions: Step 1: 50° C. for 10 min, Step 2: 95° C. for 3 min, Step 3 (40×): 95° C. for 15 s, 60° C. for 1 min. ROX (reaction volume 10 μL) was used as a passive reference. Data were collected with manual adjustment of the Ct threshold (beta-actin: 0.046, hEGLN3: 0.06) and were analyzed using the 2^(−ΔΔCt) method. Thus, for each sample, the following values were calculated: 2^(−Ct)a for beta-actin, 2^(−Ct)e for EGLN3, and 2^(−ΔCt) calculated as (2^(−Ct)e/2^(−Ct)a). The mean 2^(−ΔCt) as well as the corresponding standard deviation was calculated for each sample. Taking the DMSO-treated sample as a reference, the 2^(−ΔΔCt) for each sample was calculated as follows: 2^(−ΔΔCt)=2^(−ΔCt)sample/(2^(−ΔCt)DMSO). After calculating differential expression as 2^(−ΔΔCt) for each sample, it was then expressed as a percentage (×100) to obtain a dose-response curve in % of DMSO control and IC50s were calculated using a four-parametric fit model.

[2] = system: HIF2α-dependent transcription in 786-O-HRE-Luc cells; test: In vitro cellular hypoxia response element (HRE) reporter gene assay (RGA) for HIF2α; format: cell-based, human; details: Homo sapiens, 24 hours incubation
Description: as §1
The ability of compounds to inhibit HIF2α- and HIF1α-dependent transcription was assessed in 786-O-HRE-Luc and RCC4-HRE-Luc cells, respectively. The putative unselective inhibition of firefly luciferase activity or expression was assessed in 786-O-UB6-Luc and RCC4-UB6-Luc cells, respectively. The reporter lines were generated as follows: 786-O (RRID: CVCL_1051) and RCC4 (RRID: CVCL_0498) clear cell renal carcinoma cell lines were obtained from ATCC and Celeste Simon (University of Pennsylvania), respectively. Either cell line was transduced with a lentiviral vector in which the expression of a PEST-destabilized version of firefly-luciferase is under the control of either a minimal promoter coupled to four copies of a minimal hypoxia response element (HRE) sequence (pLenti 4×HRE Luc PEST), or a promoter from the house-keeping UBC gene (pLenti UB6 Luc PEST). In short, for the construction of the pLenti 4×HRE Luc PEST vector, 4×HRE DNA oligonucleotides were synthesized, annealed and cloned into pGL4.27 plasmid vector (Promega) predigested with NheI and HindIII restriction enzymes. The sequence of the two DNA oligonucleotides was as follows: NheI 4×HRE HindIII FWD: […] (SEQ ID NO: 8); NheI 4×HRE HindIII REV […] (SEQ ID NO: 9). The 4×HRE Luc PEST fragment was then PCRed from this plasmid with restriction enzyme sites NheI and XhoI at the two ends, and inserted into pLenti6/BLOCK iT DEST (Thermo Fisher Scientific) predigested with NheI and XhoI restriction enzymes. For the construction of the pLenti UB6 Luc PEST vector, the Luc PEST sequence was PCRed from pGL4.27 (Promega) using EcoRV and XhoI restriction enzymes at the two ends, and inserted into pLenti6/UBC/V5/DEST (Thermo Fisher Scientific) predigested with the same enzymes. 786-O and RCC4 cells (300,000 per well of a 6 well plate) were infected in the presence of 10 μg/ml polybrene with lentivirus harvested two days after transfection of HEK293-FT (ThermoFisher Scientific #R70007) cells (80% confluent in a 100 cm^2 dish) with a mix of 1.5 ml OptiMEM (ThermoFisher Scientific #31985062) containing 3 μg of the desired plasmids and 9 μl of ViralPower Packaging mix (ThermoFisher Scientific #K497500), and 1.5 ml OptiMEM containing 36 μl Lipofectamine 2000 (ThermoFisher Scientific #11668019). Successfully infected cells were selected using blasticidin (Gibco #A11139-03) at a final concentration of 5 μg/ml. The resulting stable cell lines were named 786-O pLenti 4×HRE Luc PEST (short: 786-O-HRE-Luc), 786-O pLenti UB6 Luc PEST (short: 786-O-UB6-Luc), RCC4 pLenti 4×HRE Luc PEST (short: RCC4-HRE-Luc) and RCC4 pLenti UB6 Luc PEST (short: RCC4-UB6-Luc). All 4 cell lines were maintained in growth medium composed of DMEM (GIBCO #11995-065), 2 mM L-Glutamine (BioConcept #5-10K50-H), 10% fetal calf serum (Gibco #A31608-01), 1× Penicillin/Streptomycin (BioConcept #4-01F00-H), 1 mM Sodium pyruvate (BioConcept #5-60F00-H) and 5 μg/ml blasticidin (Gibco #A11139-03) at 37° C. in a humidified 5% CO2 incubator.
For the reporter gene assay, the individual cell lines were seeded at 2,500 cells/20 μL/well into white-wall, clear-bottom 384-well plates (Greiner #781098) and incubated over night at 37° C. prior to addition of serial compound dilutions as described above. […]

[3] = target: HIF2α PAS-B domain (236-350, biotinylated on the N-terminus) (Homo sapiens (Human), UniProt Q99814)
HIF2α PAS-B domain (236-350, biotinylated on the N-terminus), sequence (Q99814 236-350): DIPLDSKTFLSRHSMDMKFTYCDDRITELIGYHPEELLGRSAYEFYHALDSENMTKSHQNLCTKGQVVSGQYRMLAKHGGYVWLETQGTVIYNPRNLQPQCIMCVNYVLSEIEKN
Description: The assay buffer contained 50 mM Tris-HCl pH7 (Sigma), 20 mM NaCl (Fluka), 0.02% BSA (Sigma), 0.005% Triton X-100 (Pierce) and 1 mM DTT (Fluka). After a 30 min incubation period, 5 μL Streptavidin PVT SPA Beads (Perkin Elmer) at 1.2 mg/mL, diluted in the buffer, were added.

Structure (SMILES)	IC50 [1]	IC50 [2]	IC50 [3]
FC(F)OC1=CC(C(F)(F)F)=CN2CC3(CCCc4c(C(F)(F)F)cccc43)N=C12 (racemic) [Example 87, rac-8-(difluoromethoxy)-5′,6-bis(trifluoromethyl)-3′,4′-dihydro-2′H,3H-spiro[imidazo[1,2-a]pyridine-2,1′-naphthalene]]	159 nM		
Fc1ccc2c(c1F)CC[C@@]21CN2C=C(C(F)(F)F)C=C(OC(F)F)C2=N1 [Example 2, (S)-8-(difluoromethoxy)-4′,5′-difluoro-6-(trifluoromethyl)-2′,3′-dihydro-3H-spiro[imidazo[1,2-a]pyridine-2,1′-indene]]	152 nM	1530 nM	12 nM
FC(F)OC1=CC(C(F)(F)F)=CN2C[C@@]3(CCc4cc(C(F)(F)F)ncc43)N=C12 [Example 3, (S)-8′-(difluoromethoxy)-3,6′-bis(trifluoromethyl)-5,6-dihydro-3′H-spiro[cyclopenta[c]pyridine-7,2′-imidazo[1,2-a]pyridine]]	187 nM	> 10000 nM	12 nM
FC(F)OC1=CC(C(F)(F)F)=CN2C[C@@]3(CCc4cc(C(F)(F)F)ccc43)N=C12 [Example 6, (S)-8-(difluoromethoxy)-5′,6-bis(trifluoromethyl)-2′,3′-dihydro-3H-spiro[imidazo[1,2-a]pyridine-2,1′-indene]]	84 nM	250 nM	
FC(F)(F)C1=CN2C[C@@]3(CCc4c3ccc(Br)c4Cl)N=C2C(Cl)=C1 [Example 71, (S)-5′-bromo-4′,8-dichloro-6-(trifluoromethyl)-2′,3′-dihydro-3H-spiro[imidazo[1,2-a]pyridine-2,1′-indene]]	181 nM		20 nM
FC(F)OC1=CC(C(F)(F)F)=CN2C[C@@]3(CCc4cc(Br)ccc43)N=C12 [Example 72, (5)-5′-bromo-8-(difluoromethoxy)-6-(trifluoromethyl)-2′,3′-dihydro-3H-spiro[imidazo[1,2-a]pyridine-2,1′-indene]]	84 nM		7 nM
FC(F)OC1=CC(C(F)(F)F)=CN2C[C@@]3(CCc4ccccc43)N=C12 [Example 75, (S)-8-(difluoromethoxy)-6-(trifluoromethyl)-2′,3′-dihydro-3H-spiro[imidazo[1,2-a]pyridine-2,1′-indene]]	183 nM		76 nM
Fc1cccc2c1CCC[C@@]21CN2C=C(C(F)(F)F)C=C(Cl)C2=N1 [Example 79, (S)-8-chloro-5′-fluoro-6-(trifluoromethyl)-3′,4′-dihydro-2′H,3H-spiro[imidazo[1,2-a]pyridine-2,1′-naphthalene]]	70 nM		5 nM
O=C1CC[C@@]2(CN3C=C(C(F)(F)F)C=C(OC(F)F)C3=N2)c2ccc(Br)cc21 [Example 90, (S)-6′-bromo-8-(difluoromethoxy)-6-(trifluoromethyl)-2′,3′-dihydro-3H,4′H-spiro[imidazo[1,2-a]pyridine-2,1′-naphthalen]-4′-one]	162 nM		10 nM
N#CC1=CN2C[C@@]3(CCSc4c3ccc(Br)c4F)N=C2C(OC(F)F)=C1 [Example 110, (S)-7′-bromo-8-(difluoromethoxy)-8′-fluoro-3H-spiro[imidazo[1,2-a]pyridine-2,4′-thiochromane]-6-carbonitrile]	35 nM		
Fc1ccc2c(c1F)SCC[C@@]21CN2C=C(C(F)(F)F)C=C(OC(F)F)C2=N1 [Example 113, (S)-8-(difluoromethoxy)-7′,8′-difluoro-6-(trifluoromethyl)-3H-spiro[imidazo[1,2-a]pyridine-2,4′-thiochromane]]	32 nM		4 nM
Fc1cccc2c1CSC[C@@]21CN2C=C(C(F)(F)F)C=C(OC(F)F)C2=N1 [Example 115, (S)-8-(difluoromethoxy)-8′-fluoro-6-(trifluoromethyl)-3H-spiro[imidazo[1,2-a]pyridine-2,4′-isothiochromane]]	30 nM		≤ 3 nM
Fc1ccc2c(c1)CSC[C@@]21CN2C=C(C(F)(F)F)C=C(OC(F)F)C2=N1 [Example 116, (S)-8-(difluoromethoxy)-7′-fluoro-6-(trifluoromethyl)-3H-spiro[imidazo[1,2-a]pyridine-2,4′-isothiochromane]]	46 nM		6 nM
